ChEMBL document CHEMBL3046781, “Resistance of Helicoverpa assulta (Guenée) (Lepidoptera: Noctuidae) to fenvalerate, phoxim and methomyl in China” (2009)

Columns and labels:
Assay type in all cases: functional
Helicoverpa assulta [1] = assay: Insecticidal activity against sixth-instar larvae of Helicoverpa assulta GZ4 at 1.8 to 183360 mg/l after 48 hr by chi-squared analysis
Helicoverpa assulta [2] = assay: Insecticidal activity against sixth-instar larvae of Helicoverpa assulta GZ2 at 1.8 to 183360 mg/l after 48 hr by chi-squared analysis
Helicoverpa assulta [3] = assay: Insecticidal activity against sixth-instar larvae of Helicoverpa assulta at 1.8 to 183360 mg/l after 48 hr by chi-squared analysis
Helicoverpa assulta [4] = assay: Insecticidal activity against sixth-instar larvae of Helicoverpa assulta GZ5 at 1.8 to 183360 mg/l after 48 hr by chi-squared analysis
Helicoverpa assulta [5] = assay: Resistance factor, ratio of LD50 for sixth-instar larvae of Helicoverpa assulta SD2 to LD50 for sixth-instar larvae of Helicoverpa assulta at 1.8 to 183360 mg/l
Helicoverpa assulta [6] = assay: Insecticidal activity against sixth-instar larvae of Helicoverpa assulta AH1 at 1.8 to 183360 mg/l after 48 hr by chi-squared analysis
Helicoverpa assulta [7] = assay: Insecticidal activity against sixth-instar larvae of Helicoverpa assulta GZ3 at 1.8 to 183360 mg/l after 48 hr by chi-squared analysis
Helicoverpa assulta [8] = assay: Resistance factor, ratio of LD50 for sixth-instar larvae of Helicoverpa assulta GZ4 to LD50 for sixth-instar larvae of Helicoverpa assulta at 1.8 to 183360 mg/l
Helicoverpa assulta [9] = assay: Insecticidal activity against sixth-instar larvae of Helicoverpa assulta YN3 at 1.8 to 183360 mg/l after 48 hr by chi-squared analysis
Helicoverpa assulta [10] = assay: Insecticidal activity against sixth-instar larvae of Helicoverpa assulta GZ1 at 1.8 to 183360 mg/l after 48 hr by chi-squared analysis
Helicoverpa assulta [11] = assay: Resistance factor, ratio of LD50 for sixth-instar larvae of Helicoverpa assulta HN2 to LD50 for sixth-instar larvae of Helicoverpa assulta at 1.8 to 183360 mg/l
Helicoverpa assulta [12] = assay: Resistance factor, ratio of LD50 for sixth-instar larvae of Helicoverpa assulta HN1 to LD50 for sixth-instar larvae of Helicoverpa assulta at 1.8 to 183360 mg/l
Helicoverpa assulta [13] = assay: Insecticidal activity against sixth-instar larvae of Helicoverpa assulta YN7 at 1.8 to 183360 mg/l after 48 hr by chi-squared analysis
Helicoverpa assulta [14] = assay: Resistance factor, ratio of LD50 for sixth-instar larvae of Helicoverpa assulta YN3 to LD50 for sixth-instar larvae of Helicoverpa assulta at 1.8 to 183360 mg/l
Helicoverpa assulta [15] = assay: Insecticidal activity against sixth-instar larvae of Helicoverpa assulta YN4 at 1.8 to 183360 mg/l after 48 hr by chi-squared analysis
Helicoverpa assulta [16] = assay: Resistance factor, ratio of LD50 for sixth-instar larvae of Helicoverpa assulta YN1 to LD50 for sixth-instar larvae of Helicoverpa assulta at 1.8 to 183360 mg/l
Helicoverpa assulta [17] = assay: Insecticidal activity against sixth-instar larvae of Helicoverpa assulta YN1 at 21 to 3390 mg/l after 48 hr by chi-squared analysis
Helicoverpa assulta [18] = assay: Insecticidal activity against sixth-instar larvae of Helicoverpa assulta HN2 at 21 to 3390 mg/l after 48 hr by chi-squared analysis
Helicoverpa assulta [19] = assay: Insecticidal activity against sixth-instar larvae of Helicoverpa assulta at 21 to 3390 mg/l after 48 hr by chi-squared analysis
Helicoverpa assulta [20] = assay: Resistance factor, ratio of LD50 for sixth-instar larvae of Helicoverpa assulta HB2 to LD50 for sixth-instar larvae of Helicoverpa assulta at 21 to 3390 mg/l
Helicoverpa assulta [21] = assay: Insecticidal activity against sixth-instar larvae of Helicoverpa assulta AH1 at 21 to 3390 mg/l after 48 hr by chi-squared analysis
Helicoverpa assulta [22] = assay: Resistance factor, ratio of LD50 for sixth-instar larvae of Helicoverpa assulta GZ2 to LD50 for sixth-instar larvae of Helicoverpa assulta at 21 to 3390 mg/l
Helicoverpa assulta [23] = assay: Insecticidal activity against sixth-instar larvae of Helicoverpa assulta YN7 at 21 to 3390 mg/l after 48 hr by chi-squared analysis
Helicoverpa assulta [24] = assay: Insecticidal activity against sixth-instar larvae of Helicoverpa assulta AH3 at 21 to 3390 mg/l after 48 hr by chi-squared analysis
Helicoverpa assulta [25] = assay: Insecticidal activity against sixth-instar larvae of Helicoverpa assulta HB2 at 21 to 3390 mg/l after 48 hr by chi-squared analysis
Helicoverpa assulta [26] = assay: Insecticidal activity against sixth-instar larvae of Helicoverpa assulta YN8 at 21 to 3390 mg/l after 48 hr by chi-squared analysis
Helicoverpa assulta [27] = assay: Resistance factor, ratio of LD50 for sixth-instar larvae of Helicoverpa assulta AH2 to LD50 for sixth-instar larvae of Helicoverpa assulta at 21 to 3390 mg/l
Helicoverpa assulta [28] = assay: Resistance factor, ratio of LD50 for sixth-instar larvae of Helicoverpa assulta YN4 to LD50 for sixth-instar larvae of Helicoverpa assulta at 21 to 3390 mg/l
Helicoverpa assulta [29] = assay: Insecticidal activity against sixth-instar larvae of Helicoverpa assulta AH1 at 39 to 12630 mg/l after 48 hr by chi-squared analysis
Helicoverpa assulta [30] = assay: Insecticidal activity against sixth-instar larvae of Helicoverpa assulta GZ4 at 39 to 12630 mg/l after 48 hr by chi-squared analysis
Helicoverpa assulta [31] = assay: Insecticidal activity against sixth-instar larvae of Helicoverpa assulta YN1 at 39 to 12630 mg/l after 48 hr by chi-squared analysis
Helicoverpa assulta [32] = assay: Resistance factor, ratio of LD50 for sixth-instar larvae of Helicoverpa assulta SD1 to LD50 for sixth-instar larvae of Helicoverpa assulta at 39 to 12630 mg/l
Helicoverpa assulta [33] = assay: Insecticidal activity against sixth-instar larvae of Helicoverpa assulta HN2 at 39 to 12630 mg/l after 48 hr by chi-squared analysis
Helicoverpa assulta [34] = assay: Resistance factor, ratio of LD50 for sixth-instar larvae of Helicoverpa assulta YN6 to LD50 for sixth-instar larvae of Helicoverpa assulta at 39 to 12630 mg/l

CC(C)C(C(=O)OC(C#N)c1cccc(Oc2ccccc2)c1)c1ccc(Cl)cc1 (stereo unspecified) [FENVALERATE]
LD90 (Helicoverpa assulta [1]): 133 µg/g
LD50 (Helicoverpa assulta [1]; Helicoverpa assulta, GZ4, 48 h): 56.2 mg/kg
LD90 (Helicoverpa assulta [2]): 558 µg/g
LD50 (Helicoverpa assulta [2]; Helicoverpa assulta, GZ2, 48 h): 169 mg/kg
LD90 (Helicoverpa assulta [3]): 0.723 µg/g
LD50 (Helicoverpa assulta [3]; Helicoverpa assulta, 48 h): 0.162 mg/kg
LD90 (Helicoverpa assulta [4]): 74.2 µg/g
LD50 (Helicoverpa assulta [4]; Helicoverpa assulta, GZ5, 48 h): 30.6 mg/kg
Ratio (Helicoverpa assulta [5]): 12
LD90 (Helicoverpa assulta [6]): 833 µg/g
LD50 (Helicoverpa assulta [6]; Helicoverpa assulta, AH1, 48 h): 333 mg/kg
LD90 (Helicoverpa assulta [7]): 725 µg/g
LD50 (Helicoverpa assulta [7]; Helicoverpa assulta, GZ3, 48 h): 133 mg/kg
Ratio (Helicoverpa assulta [8]): 347
LD90 (Helicoverpa assulta [9]): 388 µg/g
LD50 (Helicoverpa assulta [9]; Helicoverpa assulta, YN3, 48 h): 227 mg/kg
LD90 (Helicoverpa assulta [10]): 1043 µg/g
LD50 (Helicoverpa assulta [10]; Helicoverpa assulta, GZ1, 48 h): 301 mg/kg
Ratio (Helicoverpa assulta [11]): 7.23
Ratio (Helicoverpa assulta [12]): 64.9
LD90 (Helicoverpa assulta [13]): 507 µg/g
LD50 (Helicoverpa assulta [13]; Helicoverpa assulta, YN7, 48 h): 249 mg/kg
Ratio (Helicoverpa assulta [14]): 1403
LD90 (Helicoverpa assulta [15]): 4847 µg/g
LD50 (Helicoverpa assulta [15]; Helicoverpa assulta, YN4, 48 h): 1500 mg/kg
Ratio (Helicoverpa assulta [16]): 8412

CNC(=O)ON=C(C)SC [METHOMYL]
LD90 (Helicoverpa assulta [17]): 225 µg/g
LD50 (Helicoverpa assulta [17]; Helicoverpa assulta, YN1, 48 h): 45.6 mg/kg
LD90 (Helicoverpa assulta [18]): 24.2 µg/g
LD50 (Helicoverpa assulta [18]; Helicoverpa assulta, HN2, 48 h): 4.24 mg/kg
LD90 (Helicoverpa assulta [19]): 4.1 µg/g
LD50 (Helicoverpa assulta [19]; Helicoverpa assulta, 48 h): 1.45 mg/kg
Ratio (Helicoverpa assulta [20]): 10.9
LD90 (Helicoverpa assulta [21]): 168 µg/g
LD50 (Helicoverpa assulta [21]; Helicoverpa assulta, AH1, 48 h): 53.6 mg/kg
Ratio (Helicoverpa assulta [22]): 13.9
LD90 (Helicoverpa assulta [23]): 143 µg/g
LD50 (Helicoverpa assulta [23]; Helicoverpa assulta, YN7, 48 h): 39 mg/kg
LD90 (Helicoverpa assulta [24]): 44.7 µg/g
LD50 (Helicoverpa assulta [24]; Helicoverpa assulta, AH3, 48 h): 18.4 mg/kg
LD90 (Helicoverpa assulta [25]): 108 µg/g
LD50 (Helicoverpa assulta [25]; Helicoverpa assulta, HB2, 48 h): 15.8 mg/kg
LD90 (Helicoverpa assulta [26]): 185 µg/g
LD50 (Helicoverpa assulta [26]; Helicoverpa assulta, YN8, 48 h): 33.3 mg/kg
Ratio (Helicoverpa assulta [27]): 15.3
Ratio (Helicoverpa assulta [28]): 11.5

CCOP(=S)(OCC)O/N=C(\C#N)c1ccccc1 [PHOXIM]
LD90 (Helicoverpa assulta [29]): 819 µg/g
LD50 (Helicoverpa assulta [29]; Helicoverpa assulta, AH1, 48 h): 119 mg/kg
LD90 (Helicoverpa assulta [30]): 51.7 µg/g
LD50 (Helicoverpa assulta [30]; Helicoverpa assulta, GZ4, 48 h): 18.4 mg/kg
LD90 (Helicoverpa assulta [31]): 57.3 µg/g
LD50 (Helicoverpa assulta [31]; Helicoverpa assulta, YN1, 48 h): 20.4 mg/kg
Ratio (Helicoverpa assulta [32]): 5.09
LD90 (Helicoverpa assulta [33]): 19.9 µg/g
LD50 (Helicoverpa assulta [33]; Helicoverpa assulta, HN2, 48 h): 8.22 mg/kg
Ratio (Helicoverpa assulta [34]): 9.17
